In one assay the test system is passive EAE disease. Nature of the assay: Adoptive transfer model of EAE (passive EAE), clinical disease. Format: in vivo, SJL mice. On the procedure:
EAE disease was induced in 8- to 10-week-old female SJL mice by immunization with an emulsion (100 μl, subcutaneous) of proteolipid protein peptide (PLP139-151; Peptide International. Louisville, Ky.) and 200 μg of killed Mycobacterium tuberculosis H37Ra (Difco, Detroit, Mich., USA) followed by booster on day 7 as described previously (Nath et al., 2010). The mice additionally received pertussis toxin (Sigma-Aldrich, St. Louis, Mo.; 200 ng/300 μl PBS, intravenous) on day 0 and 3 post-immunization. On the day of immunization, one group of mice received 100 μl phosphate buffered saline (PBS) and the second group of mice received daily GSNO (1.0 mg/kg, 100 μl/PBS) via oral route GSNO was purchased from World Precision Instruments (Sarasota, Fla.) and its concentration was adjusted spectrophotometrically at 334 nm. Individual animals were observed daily for clinical disease severity by an investigator, blinded to experimental treatments, on a 0-5 scale as follows: 0=no abnormality; 1=piloerection, sluggish, 2=limp tail; 2.5=hind limb weakness (legs slip through cage top); 3=hind limb paralysis, 4=hind and forelimb paralysis; and 5=moribund.
(§1) At the peak of EAE disease, the mice were sacrificed and CD4+ T cells were purified from draining lymph nodes (DLN) and spleens by CD4+ T cell isolation kit (Miltenyi, Auburn. Calif.). The purified T cells (2.5×10^6 cells/ml) were cultured in 96-well round-bottom microculture plates (Falcon Labware, Oxnard, Calif.) in RPMI-complete media containing RPMI 1640 (Life Technologies, Gaithersburg, Md.), 10% FBS, and 100 μg/ml streptomycin and penicillin (Atlanta Biologicals Norcross, Ga.), 1 mM glutamine, 1 mM nonessential amino acids, and 50 μM 2-mercaptoethanol (Sigma-Aldrich). For skewing of different CD4+ T cell subsets and their expansion, the isolated CD4+ T cells were stimulated with PLP139-151 (5 μg/ml) with IL-2 (10 ng/ml) for TH0, IL-2 (10 ng/ml), rhIL-12p35 (10 ng/ml), and anti-IL-4 (1 μg/ml) for TH1, or recombinant mouse IL-12/23p40 homodimer (10 ng/ml), anti-IFN-γ 1 (μg/ml), anti-IL-4 (1 μg/ml) for TO 17. All cytokines and antibodies were purchased from BD Biosciences (San Diego, Calif.). Following stimulation, the cells were harvested for adoptive transfer of EAE disease and the culture supernatants were collected for analysis of IFN-γ, IL-17, and IL-10 expression by ELISA (Biolegend Cat #430802, 432505, and 431411; San Diego, Calif.).
(20-30×10^6 T cells in 300 μl RPMI media per mouse) were injected to naive SJL female mice (8-10 week old) via intraperitoneal route. The recipient mice were also given two doses of pertussis toxin (200 ng/300 μl of PBS/i.p.) on day 0 and 2 of post immunization. Clinical EAE disease was measured as describe above.

Assay [1] concerns tight junction proteins (ZO-1, Occludin, Claudin-5). Nature of the assay: Western blotting, protein expression of tight junction proteins in isolated microvessels of diabetic mice. Format: in vivo. On the procedure: Male laca mice weighing between 28-32 g were procured from the Central Animal House, Panjab University, Chandigarh. The animals were acclimatized and were fed with standard pellet diet and water ad libitum. The experimental protocols were approved by the Institutional Ethics Committee and were conducted according to Indian National Science Academy (INSA) guidelines for the use and care of experimental animals. The animals were divided into four groups: (i) Control animals received phosphate buffered saline (PBS) throughout the study; (ii) Control+GSNO animals were administered with GSNO 100 μg/kg body weight orally, dissolved in PBS after every 24 h for 8 weeks; (iii) Diabetic animals were injected with STZ at a dose of 40 mg/kg body weight intraperitoneally for 5 days dissolved in 0.1 mol/L citrate buffer, pH 4.5 and Diabetic+GSNO mice were administered GSNO 100 μg/kg body weight orally dissolved in PBS after every 24 h for 8 weeks after the induction of diabetes. Animals were assessed weekly for development of diabetic encephalopathy in terms of memory deficits. All experimental procedures were done on mice at the end of study. The microvessels were isolated by the method described by Brooks et al., (2005). Brain tissue was homogenized in microisolation buffer (103 mM NaCl, 4.7 mM KCl, 2.5 mM CaCb, 1.2 mM KH2PO4, 1.2 mM MgSO4, 15 mM HEPES, 2.5 mM NaHCO3, 10 mM D-glucose, 1 mM sodium pyruvate and 10 g/L dextran (64,000 mol wt), pH 7.4) and equal amount of 26% (w/v) dextran was added. The sample was then centrifuged at 5600 g for 10 min and pellets obtained were resuspended in microisolation buffer. Then the suspension was filtered through 70 μm filter (BD Biosciences, Gurgaon, India). The filtered homogenates were then centrifuged at 3000 g for 10 min at 4° C. and the pellet was obtained. Protein expression of tight junction proteins and cell adhesion molecules i.e. ZO-1, occludin, Claudin-5, ICAM-1 and VCAM-1 was studied in microvessels obtained from cortex and hippocampus regions of the brain (Towbin et al., 1992). […]

A further assay relates to IFN-γ, IL-17. Nature of the assay: IFN-γ and IL-17 in spinal cords of passively immunized EAE mice, ELISA. It counts as in vivo, SJL mice. The settings on record: T cells from GSNO treated vs untreated EAE mice. On the procedure:
as §1, with “Following stimulation, the cells were harvested for adoptive transfer of EAE disease and the culture supernatants were collected for analysis of IFN-γ, IL-17, and IL-10 expression by ELISA (Biolegend Cat #430802, 432505, and 431411; San Diego, Calif.).” left out
(20-30×10^6 T cells in 300 μl RPMI media per mouse) were injected to naive SJL female mice (8-10 week old) via intraperitoneal route. […] Clinical EAE disease was measured as describe above.
(In general: ELISA stands for enzyme-linked immunosorbent assay.)

Setting [2] is: daily GSNO treatment of recipient mice.
[3] abbreviates: microvessels of cortex and hippocampus, diabetic mice + GSNO 100 μg/kg oral 8 weeks.

Regarding `N[C@@H](CCC(=O)N[C@@H](CSN=O)C(=O)NCC(=O)O)C(=O)O` [GSNO, S-nitrosoglutathione], in the assay on passive EAE disease (setting [2]), the “passive EAE disease severity, recipients of T cells from GSNO treated EAE mice treated with GSNO during the disease” value is “further reduced” and the “passive EAE disease, recipients of T cells from untreated EAE mice treated with GSNO during the disease” value is given as “reduced the EAE disease”. The “passive EAE disease after transfer of T cells from GSNO treated EAE mice” value with passive EAE disease (recipients without GSNO, vs T cells from untreated EAE mice) was “significantly delayed and milder disease”. Further, the “passive EAE disease after transfer of TH1 and TH17 skewed T cells from GSNO treated EAE mice” value with passive EAE disease (vs T cells from untreated EAE mice) was “significantly milder EAE disease”. Further, the “protein expression of claudin-5” value in assay [1] (GSNO treated diabetic animals) is “no significant change”. For the same compound, in assay [1] (setting [3]), the “increase of protein expression of ZO-1” value is ~70% and the “increase of protein expression of occludin” value is ~60%. In addition, in the assay with IFN-γ, IL-17, the “IFN-γ in the spinal cords of passively immunized mice” value is “comparable levels” and the “IL-17 in the spinal cords of passively immunized mice” value was “significantly lower levels”.

The values are drawn from US10925858B2, “S-nitrosoglutathione (GSNO) and GSNO reductase inhibitors for use in therapy” (MUSC FOUNDATION FOR RESEARCH DEVELOPMENT, priority 2017, dated 2021).
